Laboratory results published in PubChem BioAssay (NCI).
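Following 48 hours of exposure in 96-well plates, responses at five concentrations were used to interpolate endpoints linearly. Definition used: TGI = concentration required for complete inhibition of growth.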

Columns and labels:
Experiment in all cases: NCI-60 cell line screen, 48 h
HT29 colon = system: HT29 colon
NCI-H226 lung = system: NCI-H226 lung
A549 NSCLC = system: A549 NSCLC
MOLT-4 leukemia = system: MOLT-4 leukemia
BT-549 breast = system: BT-549 breast
SK-OV-3 ovarian = system: SK-OV-3 ovarian
SNB-75 CNS = system: SNB-75 CNS
786-0 renal = system: 786-0 renal
HCT-116 colon = system: HCT-116 colon
MDA-MB-231 breast = system: MDA-MB-231 breast

## CC(C)(C)OC(=O)/N=C/c1c(O)c2ccccc2oc1=O
HT29 colon
  TGI: > 100 µM
NCI-H226 lung
  TGI: 64.7 µM
A549 NSCLC
  TGI: > 100 µM
MOLT-4 leukemia
  TGI: > 100 µM
BT-549 breast
  TGI: > 100 µM
SK-OV-3 ovarian
  TGI: 0.0852 µM
SNB-75 CNS
  TGI: > 100 µM
786-0 renal
  TGI: > 100 µM
HCT-116 colon
  TGI: > 100 µM
MDA-MB-231 breast
  TGI: 86 µM

## CCOC(=O)c1c(C)n(-c2ccc(C)cc2)c(=O)c2ccccc2c(=O)c2c(=O)ccc(=O)c1=2
HT29 colon
  TGI: 38.7 µM
NCI-H226 lung
  TGI: 59.7 µM
A549 NSCLC
  TGI: 58.1 µM
MOLT-4 leukemia
  TGI: 11.4 µM
BT-549 breast
  TGI: 57.9 µM
SK-OV-3 ovarian
  TGI: 73.3 µM
SNB-75 CNS
  TGI: 81.7 µM
786-0 renal
  TGI: > 100 µM
HCT-116 colon
  TGI: 33.3 µM
MDA-MB-231 breast
  TGI: > 100 µM

## O=C(O)c1ccccc1/C=C1\Cc2cc3c(cc2C1=O)CCC3
HT29 colon
  TGI: 49.1 µM
NCI-H226 lung
  TGI: 80.8 µM
A549 NSCLC
  TGI: > 100 µM
MOLT-4 leukemia
  TGI: 46.5 µM
BT-549 breast
  TGI: > 100 µM
SK-OV-3 ovarian
  TGI: > 100 µM
SNB-75 CNS
  TGI: 25 µM
786-0 renal
  TGI: 70.5 µM
HCT-116 colon
  TGI: 76.6 µM
MDA-MB-231 breast
  TGI: 51.2 µM

## NCCc1ccc(S(=O)(=O)O)cc1[N+](=O)[O-]
HT29 colon
  TGI: > 100 µM
NCI-H226 lung
  TGI: > 100 µM
A549 NSCLC
  TGI: > 100 µM
MOLT-4 leukemia
  TGI: > 32.4 µM
BT-549 breast
  TGI: > 100 µM
SK-OV-3 ovarian
  TGI: > 100 µM
SNB-75 CNS
  TGI: > 100 µM
786-0 renal
  TGI: > 100 µM
HCT-116 colon
  TGI: > 100 µM
MDA-MB-231 breast
  TGI: > 100 µM

## C(=C\c1cc[n+](CCc2ccccc2)cc1)/c1ccccc1
HT29 colon
  TGI: 35.1 µM
NCI-H226 lung
  TGI: 48.9 µM
A549 NSCLC
  TGI: 51.8 µM
MOLT-4 leukemia
  TGI: 69.4 µM
BT-549 breast
  TGI: 57.9 µM
SK-OV-3 ovarian
  TGI: > 100 µM
SNB-75 CNS
  TGI: > 100 µM
786-0 renal
  TGI: > 100 µM
HCT-116 colon
  TGI: 65.4 µM
MDA-MB-231 breast
  TGI: 29.1 µM

## Cc1nn(C(=O)Cc2ccccc2)c2c1C(c1ccc(/C=C/c3ccccc3)cc1)SC(N)=N2 (stereo not given)
HT29 colon
  TGI: > 100 µM
NCI-H226 lung
  TGI: > 100 µM
A549 NSCLC
  TGI: > 100 µM
MOLT-4 leukemia
  TGI: > 100 µM
BT-549 breast
  TGI: > 100 µM
SK-OV-3 ovarian
  TGI: > 100 µM
SNB-75 CNS
  TGI: > 100 µM
786-0 renal
  TGI: > 100 µM
HCT-116 colon
  TGI: > 100 µM
MDA-MB-231 breast
  TGI: > 100 µM

## O=c1c2sc3ccccc3sc=2c(=O)c2c(Cl)c(Cl)c(Cl)c(Cl)c12
HT29 colon
  TGI: > 100 µM
NCI-H226 lung
  TGI: > 100 µM
A549 NSCLC
  TGI: > 100 µM
MOLT-4 leukemia
  TGI: > 100 µM
BT-549 breast
  TGI: > 100 µM
SK-OV-3 ovarian
  TGI: > 100 µM
SNB-75 CNS
  TGI: > 100 µM
786-0 renal
  TGI: > 100 µM
HCT-116 colon
  TGI: > 100 µM
MDA-MB-231 breast
  TGI: > 100 µM

## N/C(=N\N=C\c1nc2ccccc2o1)c1cnccn1
HT29 colon
  TGI: > 100 µM
NCI-H226 lung
  TGI: > 100 µM
A549 NSCLC
  TGI: > 100 µM
MOLT-4 leukemia
  TGI: > 100 µM
BT-549 breast
  TGI: > 100 µM
SK-OV-3 ovarian
  TGI: > 100 µM
SNB-75 CNS
  TGI: 42.8 µM
786-0 renal
  TGI: > 100 µM
HCT-116 colon
  TGI: > 100 µM
MDA-MB-231 breast
  TGI: > 100 µM

## COC(=O)c1c(C)cccc1C1CN=NC12Cc1cc(C)c(C)cc1C2=O (stereo not given)
HT29 colon
  TGI: > 100 µM
NCI-H226 lung
  TGI: > 100 µM
A549 NSCLC
  TGI: > 100 µM
MOLT-4 leukemia
  TGI: > 100 µM
BT-549 breast
  TGI: > 100 µM
SK-OV-3 ovarian
  TGI: > 100 µM
SNB-75 CNS
  TGI: > 100 µM
786-0 renal
  TGI: > 100 µM
HCT-116 colon
  TGI: > 100 µM
MDA-MB-231 breast
  TGI: > 100 µM

## CCc1nc(N)nc(N)c1-c1ccc(N2CCOCC2)c(N=[N+]=[N-])c1
HT29 colon
  TGI: > 100 µM
NCI-H226 lung
  TGI: > 100 µM
A549 NSCLC
  TGI: > 100 µM
MOLT-4 leukemia
  TGI: > 100 µM
BT-549 breast
  TGI: > 100 µM
SK-OV-3 ovarian
  TGI: > 100 µM
SNB-75 CNS
  TGI: > 100 µM
786-0 renal
  TGI: > 100 µM
HCT-116 colon
  TGI: > 100 µM
MDA-MB-231 breast
  TGI: > 100 µM

## Cc1cc2nnn(C3CCCCO3)c2cc1C (stereo not given)
HT29 colon
  TGI: > 100 µM
NCI-H226 lung
  TGI: > 100 µM
A549 NSCLC
  TGI: > 100 µM
MOLT-4 leukemia
  TGI: > 100 µM
BT-549 breast
  TGI: > 100 µM
SK-OV-3 ovarian
  TGI: > 100 µM
SNB-75 CNS
  TGI: > 100 µM
786-0 renal
  TGI: > 100 µM
HCT-116 colon
  TGI: > 100 µM
MDA-MB-231 breast
  TGI: > 100 µM

## O=C(Nc1ccc(Cl)cc1Cl)C1C(=O)OC2(CCCCC2)OC1=O
HT29 colon
  TGI: 25 µM
NCI-H226 lung
  TGI: 29.3 µM
A549 NSCLC
  TGI: 28.8 µM
MOLT-4 leukemia
  TGI: 26.9 µM
BT-549 breast
  TGI: 26.7 µM
SK-OV-3 ovarian
  TGI: 32.2 µM
SNB-75 CNS
  TGI: 29.2 µM
786-0 renal
  TGI: 30.3 µM
HCT-116 colon
  TGI: 23.3 µM
MDA-MB-231 breast
  TGI: 33 µM

## CCN(C(=O)N[C@@H](CC(C)C)C(=O)NCC(=O)OC)c1ccccc1
HT29 colon
  TGI: > 100 µM
NCI-H226 lung
  TGI: > 100 µM
A549 NSCLC
  TGI: > 100 µM
MOLT-4 leukemia
  TGI: > 100 µM
BT-549 breast
  TGI: > 100 µM
SK-OV-3 ovarian
  TGI: > 100 µM
SNB-75 CNS
  TGI: > 100 µM
786-0 renal
  TGI: > 100 µM
HCT-116 colon
  TGI: > 100 µM
MDA-MB-231 breast
  TGI: > 100 µM

## O=C(/C=C/c1ccccc1)CCN1CCCCC1
HT29 colon
  TGI: 43.3 µM
NCI-H226 lung
  TGI: > 100 µM
A549 NSCLC
  TGI: > 100 µM
MOLT-4 leukemia
  TGI: 63.1 µM
BT-549 breast
  TGI: > 100 µM
SK-OV-3 ovarian
  TGI: > 100 µM
SNB-75 CNS
  TGI: > 100 µM
786-0 renal
  TGI: 44.4 µM
HCT-116 colon
  TGI: 32.1 µM
MDA-MB-231 breast
  TGI: 63.9 µM

## COc1ccc(OC)c(/C=C2/C(=O)N=C(NC(C)=O)N2C)c1
HT29 colon
  TGI: > 100 µM
NCI-H226 lung
  TGI: > 100 µM
A549 NSCLC
  TGI: > 100 µM
MOLT-4 leukemia
  TGI: > 100 µM
BT-549 breast
  TGI: > 100 µM
SK-OV-3 ovarian
  TGI: > 100 µM
SNB-75 CNS
  TGI: > 100 µM
786-0 renal
  TGI: > 100 µM
HCT-116 colon
  TGI: > 100 µM
MDA-MB-231 breast
  TGI: > 100 µM

## COc1cc(Nc2cc(Cl)cc(Cl)c2)nc(N)n1
HT29 colon
  TGI: 33.2 µM
NCI-H226 lung
  TGI: 42.5 µM
A549 NSCLC
  TGI: 48.5 µM
MOLT-4 leukemia
  TGI: 51 µM
BT-549 breast
  TGI: 40.8 µM
SK-OV-3 ovarian
  TGI: 64.5 µM
SNB-75 CNS
  TGI: 43.6 µM
786-0 renal
  TGI: 31.8 µM
HCT-116 colon
  TGI: 31 µM
MDA-MB-231 breast
  TGI: 43.8 µM

## CCOc1ccc(NC(=O)C(=O)C(/C(=N/N)C(=O)OC)c2nc3ccc([N+](=O)[O-])cc3[nH]c2=O)cc1 (stereo not given)
HT29 colon
  TGI: > 100 µM
NCI-H226 lung
  TGI: > 100 µM
A549 NSCLC
  TGI: > 100 µM
MOLT-4 leukemia
  TGI: > 100 µM
BT-549 breast
  TGI: > 100 µM
SK-OV-3 ovarian
  TGI: > 100 µM
SNB-75 CNS
  TGI: > 100 µM
786-0 renal
  TGI: > 100 µM
HCT-116 colon
  TGI: > 100 µM
MDA-MB-231 breast
  TGI: > 100 µM
